Experimental data as given in patent EP0603412A1, “COMPOUNDS BASED ON PALLADIUM AND ON DERIVATIVES OF AROMATIC AMINES AND METHOD OF OBTAINING THEM” (priority 1992, dated 1993).
Like-named read-outs stand apart in the source and are kept apart here.

Key:
[1] = system: male mice F1(CBA57BL); settings: single administration
Procedure: Tests were carried out on male hybrid mice F₁(CBAxC₅₇BL). About two thousands animals have been used in tests.
Acute toxicity off the invention compounds was determined in experiments on mice after a single intravenous and intraperitoneal administration. Tested compounds were injected in the form of 0.1 to 1.0 wt% solutions by syringe with the entry needle. Intraperitoneal route was effected by administering a suspension of the compounds in 1% starch size using a syringe and a metal probe. […] Toxicity doses were calculated and statistically processed via Litchfield-Wilcoxon technique modified by Z.Rott.

[2] = system: male hybrid mice F₁(CBAxC₅₇BL); experiment: Radiomodifying effect under single total γ-irradiation (survival, LD50/8, LD50/30, DCF); type: in vivo; settings: for DCF: based on LD50/30; for LD50/30: mouse, in vivo
Procedure: About two thousands animals have been used in tests.
Before irradiation control group of animals was intravenously administered isotonic saline solution in amount of 0.3 ml per mouse.
(§1) The mice were placed into the glass containers inserted into irradiation zone. The radiation sources were arranged in the form of "squirrel cage". The radiation doses were established by duration of the stay in active zone. […] The animals were irradiated in the range from 4.0 to 10 Gr.
(§2) A survival rate was determined on the 8th and 30th day of observation. From the data obtained were derived the curves illustrating a dependence of the survival rate upon a radiation dosage on a percentage basis. LD50/8 and LD50/30 values were estimated by extrapolation to the dosage scale.
(§3) A radiomodifying effect was evaluated by a dose change factor (DCF) calculated from the ratio of LD₅₀ in test to LD₅₀ in control.

[3] = system: mice; experiment: Radiomodifying effect under five-fold γ-irradiation at 24 hours intervals; type: in vivo; settings: 10 mg/kg, 15 min after each fraction
Procedure: as §1, §2, §3

[4] = system: mice; experiment: Radiomodifying effect under two-fold γ-irradiation at 4 hours intervals; type: in vivo; settings: for Survival rate: 1st fraction 4.0 Gr; for DCF: two-fold irradiation
Procedure: as §1
A survival rate was determined on the 8th and 30th day of observation. From the data obtained were derived the curves illustrating a dependence of the survival rate upon a radiation dosage on a percentage basis.
as §3

[5] = 10mg/kg 15 min after irradiation (Table 7)
[6] = 10mg/kg 15 min after irradiation, irradiation dose 7.5 Gr
[7] = 10mg/kg 15 min after irradiation, irradiation dose 8.0 Gr
[8] = 10mg/kg 15 min after irradiation, irradiation dose 8.5 Gr
[9] = system Ephazole/0.9% NaCl, calculated from literature equilibrium constants

Substance | LD10 ([1]; i.v.) [mg/kg] | LD50 ([1]; i.v., observed for a month) | DCF [2, 5] | Survival rate [2, 6] [%] | Survival rate [2, 7] [%] | Survival rate [2, 8] [%] | LD50/30 [2] [Gr] | further results
N-[1,3-dihydroxy-1-(4-nitrophenyl)-prop-2-yl]ammonium palladium tetrachloride [Compound 3] | 70 | 90(97.5-82.5) mg/kg | 1.07 | 60 | 30 | 0 | 7.7 | 
N-ethyl-N-[2-hydroxy-2(4-hydroxyphenyl)ethyl]ammonium palladium tetrachloride [Compound 5] | 10 | 15(16.8-13.2) mg/kg | 1.07 | 70 | 20 | 0 | 8.25 | DCF ([2]; 10mg/kg 15 min before irradiation (Table 7)): 1.14; Survival rate ([2]; 10mg/kg 15 min before irradiation, irradiation dose 7.5 Gr): 90%; Survival rate ([2]; 10mg/kg 15 min before irradiation, irradiation dose 8.0 Gr): 70%; Survival rate ([2]; 10mg/kg 15 min before irradiation, irradiation dose 8.5 Gr): 30%; LD50/30 ([2]; listed as compound 5): 7.75 Gr
N-methyl-N-(1-phenyl-1-hydroxy-prop-2-yl)ammonium palladium tetrachloride [Ephazole] | 110 |  |  |  |  |  |  | LD10 ([1]; i.p.): 180 mg/kg; time for using a 0.4% solution (0.4% solution in isotonic saline medium, 25°C): not over one hour; temperature over which solutions could not be heated (0.9% NaCl solutions tested at 4, 25, 40 and 100°C): ≤ 40 °C; content of [PdCl₃(H₂O)]⁻ anion under equilibrium conditions [9]: 21.3%; content of [PdCl₄]²⁻ under equilibrium conditions [9]: 78.7%; state in aqueous solutions (water as vehicle, 20 mg/10 ml and 40 mg/10 ml): profound hydrolysis; DCF [3]: 1.47; Survival rate ([4]; 10 mg/kg i.v. within 15 min after 1st and 2nd fraction, 2nd fraction 5.0 Gr): 90%; Survival rate ([4]; 10 mg/kg i.v. within 15 min after 1st and 2nd fraction, 2nd fraction 5.5 Gr): 60%; Survival rate ([4]; 10 mg/kg i.v. within 15 min after 1st and 2nd fraction, 2nd fraction 6.0 Gr): 20%; DCF ([4]; 10 mg/kg i.v. within 15 min after 1st and 2nd fraction): 1.11; Survival rate ([4]; 10 mg/kg i.v. within 15 min after 1st fraction, 2nd fraction 4.5 Gr): 90%; Survival rate ([4]; 10 mg/kg i.v. within 15 min after 1st fraction, 2nd fraction 5.0 Gr): 70%; Survival rate ([4]; 10 mg/kg i.v. within 15 min after 1st fraction, 2nd fraction 5.5 Gr): 30%; DCF ([4]; 10 mg/kg i.v. within 15 min after 1st fraction): 1.06
N-methyl-N-(2-phenyl-2-hydroxypropyl)ammonium palladium tetrachloride [Compound 4] | 75 | 100(109.5-91.5) mg/kg | 1.07 | 80 | 20 | 10 | 7.75 | 
N-methyl-N-[2-hydroxy-2(4-nitrophenyl)ethyl]ammonium palladium tetrachloride [Compound 2] |  |  | 1.10 | 70 | 30 |  | 8.0 | LD10 ([1]; i.g.): 63 mg/kg; LD50 ([1]; i.g.): 95(107-83) mg/kg; Survival rate ([2]; 10mg/kg 15 min after irradiation, irradiation dose 7.0 Gr): 90%
